Columns and labels:
[1] = Visual cloudiness of surfactant formulation with added agent after 20:1 dilution with water; assay type: physicochemical; design: key: Samples that appeared cloudy (turbid) within less than a day were noted as cloudy (“Yes”); Samples that did not appear cloudy (turbid) within less than a day were noted as not cloudy (“No”); conditions: 0.5 g formula, 10 ml deionized water; for Cloudy at 1:20 dilution at 2%, 4%, and/or 6%: Table 3, visual, within less than a day; for Added at 2%: cloudy at 20:1 dilution: agent at 2%; for Added at 4%: cloudy at 20:1 dilution: agent at 4%; for Added at 6%: cloudy at 20:1 dilution: agent at 6%; for Added at 8%: cloudy at 20:1 dilution: agent at 8%
Protocol: Now referring to Tables 3 and 4, the following surfactant formulations were made by mixing 1.6% perfume, 24% sodium undecyl sulfate (CAS#1072-24-8) active, 6% lauramidopropyl betaine (CAS#4292-10-8) active, and 60.4% deionized water which leaves 8% unfilled for the addition of the listed agents (the balance being filled in by distilled water). The agents were added at a percentage of 2%, 4%, 6%, and 8% into the above surfactant formulation. The resulting formulations were vortexed and put into oven at 60° C. overnight to form homogeneous solution. For all formulations, the surfactant, water and additives, including the added agents, were expected to be in a single phase.
The resulting formulations were weighed out in a scintillation vial combined with 10 ml of water to achieve a representative dilution during use: 0.5 g formula, 10 ml deionized water for 20:1 dilution. After the combination of the ingredients, the vial was vigorously shaken by hand and the samples were visually inspected by looking at the solution against a dark background. Samples that appeared cloudy (turbid) within less than a day were noted as cloudy (“Yes”). […] Samples that appeared cloudy at the 20:1 dilution for any of the 2%, 4% or 6% concentration of oil may be most desirable by requiring a limited amount of the agent to be added, limiting cost and trade-offs associated with higher levels.
The appearance of a cloudy formulation at 1:20 dilution at 2%, 4%, and/or 6% can signal improved deposition of surfactant soluble active agents during consumer use.

[2] = Kinematic viscosity at 40 C of surfactant base formulation with added agent (Cannon viscometer); assay type: physicochemical; conditions: for Lowest viscosity achieved (cSt): Table 1, base formulation 24% sodium undecyl sulfate, 6% lauramidopropyl betaine, 1.6% perfume, agent at 2%, 4%, 6%, 8%, 40° C.; for Kinematic viscosity at 40 C. [cSt], 2% oil: agent added at 2% to base formulation; for Kinematic viscosity at 40 C. [cSt], 4% oil: agent added at 4% to base formulation; for Kinematic viscosity at 40 C. [cSt], 6% oil: agent added at 6% to base formulation; for Kinematic viscosity at 40 C. [cSt], 8% oil: agent added at 8% to base formulation
Source text: Referring to Tables 1 and 2, the base formulations were made by mixing 1.6% perfume, 24% sodium undecyl sulfate (CAS#1072-24-8) active, 6% lauramidopropyl betaine (CAS#4292-10-8) active and 60.4% deionized water which leaves 8% unfilled for the addition of a viscosity reducing agent (the balance being filled in by distilled water). For all compositions, the surfactant, water and additives including viscosity reducing agents were expected to be in a single phase.
The agents from Tables 1 and 2 were added to the base formulation at a percentage of 2%, 4%, 6%, and 8% into the above surfactant solution. The subsequent formulations were vortexed and put into oven at 60° C. overnight to form homogeneous solution. The viscosities of the formulations were measured with calibrated viscometers (Size 200/350/450) from Cannon Instrument Company (2139 High Tech Road, State College, Pa., USA, 16803).
After the equilibration, the formulations were drawn to reach the starting mark with a rubber suction bulb and the flow time between the starting mark and end mark was recorded for calculation. Each formulation was measured three times to calculate average and standard deviation. Between samples, viscometer was cleaned with water and acetone to rinse off residual.
Viscosity values were calculated based on the equation:
Viscosity (mm^2/s·(cSt))=Time (s)*Constant (mm^2/s^2·(cSt/s))
The time in the above equation is the flow time recorded in the experiment and the constant numbers for each calibrated viscometer were obtained from the manuals. […]
The viscosities of the formulations are measured with calibrated viscometers (Size 200/350/450) from Cannon Instrument Company (2139 High Tech Road, State College, Pa., USA, 16803). Prior to the measurement, the formulations are equilibrated in the viscometer reservoir for 30 min at 40° C. in water bath to ensure a homogeneous temperature is reached in the system. […]

Cloudy at 1:20 dilution at 2%, 4%, and/or 6% [1] | Added at 2%: cloudy at 20:1 dilution [1] | Added at 4%: cloudy at 20:1 dilution [1] | Lowest viscosity achieved (cSt) [2] | Kinematic viscosity at 40 C. [cSt], 2% oil [2] | Kinematic viscosity at 40 C. [cSt], 4% oil [2] | SMILES | Added at 6%: cloudy at 20:1 dilution [1] | Added at 8%: cloudy at 20:1 dilution [1] | Kinematic viscosity at 40 C. [cSt], 6% oil [2] | Kinematic viscosity at 40 C. [cSt], 8% oil [2]
No | No |  | 368 cSt | 367.9 cSt |  | CCCCOC(=O)c1ccccc1O [Butyl Salicylate] |  |  |  | 
Yes | No | No | 35 cSt | 307.6 cSt | 74.5 cSt | C=C(C)[C@H]1CC=C(C)CC1 [Dipentene] | Yes | Yes | 35.1 cSt | 42.6 cSt

Further lines, the molecule ahead of its results:

SMILES | Cloudy at 1:20 dilution at 2%, 4%, and/or 6% [1] | Added at 2%: cloudy at 20:1 dilution [1] | Added at 4%: cloudy at 20:1 dilution [1] | Lowest viscosity achieved (cSt) [2] | Kinematic viscosity at 40 C. [cSt], 2% oil [2] | Kinematic viscosity at 40 C. [cSt], 4% oil [2] | Added at 6%: cloudy at 20:1 dilution [1] | Added at 8%: cloudy at 20:1 dilution [1] | Kinematic viscosity at 40 C. [cSt], 6% oil [2] | Kinematic viscosity at 40 C. [cSt], 8% oil [2]
CCCCCCCCCCCCCCCC [Hexadecane] | No | No | No | 18 cSt | 21.1 cSt | 18.1 cSt |  |  |  | 
CC1=CC=C(C(C)C)CC1 [alpha-Terpinene] | Yes | No | No | 42 cSt | 324.4 cSt | 96.0 cSt | Yes | Yes | 41.5 cSt | 46.7 cSt
CCC(=O)OC1CC2CC1C1CC=CC21 (centres unmarked) [Cyclaprop] | No | No | No | 404 cSt | 404.2 cSt |  |  |  |  | 

From US20160354300A1, “Low Viscosity Hair Care Composition” (The Procter & Gamble Company, priority 2015, published 2016)
